Laboratory results taken from patent publication US20090098596A1, “PHOTOSTABLE FRET-COMPETENT BIARSENICAL-TETRACYSTEINE PROBES BASED ON FLUORINATED FLUORESCEINS” (priority 2006, published 2009).
Where two headings read alike, the source gives them in different places.

What was measured:
[1] = Fluorescence lifetimes by TCSPC; format: physicochemical; conditions: for t (fluorescence lifetime), parent fluorophore: 20 mM buffer HEPES, pH 7.4; for t (fluorescence lifetime), P12-Complex: TCSPC
Procedure: (§1) Absorption and fluorescence spectra were measured with a UVIKON 943 Double Beam UV/Vis absorption spectrophotometer and with a Perkin Elmer LS50B fluorescence spectrophotometer, respectively. Lifetime measurements were made by TCSPC in a Horiba Jobin Yvon IBH Fluorescence Lifetime Spectrometer System. The excitation source at 495 nm was a NanoLED N-01 Aqua and the detection module was TBX-04-A. Irradiation was carried out using a Superlite SUV-DC-P system incorporating a 200W DC Super-Pressure short arc lamp coupled to a light guide for high UV transmission and an electronic timer for exposure time control (Lumatec GmbH,
The fluorescence lifetimes of the complexes obtained as described in section 3.1, were determined by TCSPC. The corresponding values for each parent fluorescein were also determined in 20 mM buffer HEPES, pH 7.4 for comparison.

[2] = test system: model target peptide P12 (FLNCCPGCCMEP); test: In vitro labeling of model peptide P12; absorption and emission spectra of biarsenical-P12 complexes; format: physicochemical
Procedure: as §1
To a solution of the biarsenical compound in buffer HEPES 20 mM, 1 mM 2-ME, pH 7.4, at a concentration of 0.1 μM and with a slight excess of EDT, was added the model target peptide P12 ([…]) to a final concentration of 1 μM from a stock solution in the same buffer and treated with 10 mM TCEP to reduce any disulfide bond. Emission spectra were taken after two hours of formation of the complex. FIG. 4 depicts the emision spectra of the F2F1AsH, F4F1AsH and F1AsH at equal concentration, with excitation at 490 nm. A 4-fold enhanced fluorescence emission of F2F1AsH compared to F1AsH can be observed.

[3] = Photostability (photobleaching under mercury arc lamp irradiation); format: physicochemical; conditions: complexes with P12
Procedure: FIG. 2 illustrates a graph illustrations photobleaching of F2F1AsH-P12 (◯), F4F1AsH-P12 (□) and F1AsH-P12 (+). Full lines correspond to exponential fits. Complexes of the three dyes (10 μM) were irradiated with a mercury arc lamp through a 490-560 nm filter with an irradiance of 70 mW/cm^2;
as §1
Samples containing 10 μM of the biarsenical compounds and 10 μM of the model peptide P12, were incubated at room temperature for 1 h. Each solution of the F1AsH-peptide complex was irradiated for 120 min as previously described (see General Procedures).
Values of κbl were calculated from the monoexponential fitting of the experimental photobleaching decay, according to the model described in (Eq. 1) for the intermediate irradieation regime.^13
where τ(s) is the lifetime, Ψ is the irradiance (photons cm^−2 s^−1) and σ is the molecular absorption cross-section (cm^2 molecules^−1). Inasmuch as a broad excitation bandwidth was used, σ was computed as a mean value over the spectral distribution function of photon flux and corrected by the spectral integral with the corresponding absorption spectra, including the irradiation source and filter.

[4] = Critical Förster distances of donor-acceptor combinations; format: physicochemical
Description: F2F1AsH and F4F1AsH have a very favorable spectral overlap, leading to a large J (the overlap integral) and thus an R0 of 5.4 nm, greater than any of the values obtained with the other combinations of donors and acceptors based on biarsenical dyes. For example the F1ASH-ReAsH pair has an R0 of 3.9 nm. Thus, the new F2F1AsH-F4F1AsH probes constitute a new donor acceptor pair extending the dynamic range for heteroFRET in studies of living cells by 40%. They also provide new possibilities in combination with other FRET donors and acceptors within and outside the biarsenical family.

[5] = approximate value from ref 8; cited from earlier work

Structure (SMILES)	t (fluorescence lifetime), parent fluorophore [1] [ns]	wavelength of fluorescence maximum [3] [nm]	t (fluorescence lifetime), P12-Complex [1] [ns]	10^13 · J (overlap integral) ([4]; acceptor F4FlAsH)	Ro ([4]; acceptor F4FlAsH) [nm]	10^14 · J (overlap integral) ([4]; acceptor ReAsH)	Ro ([4]; acceptor ReAsH) [nm]	other results
O=C1OC2(c3cc(F)c(O)cc3Oc3cc(O)c(F)cc32)c2ccccc21 [2′,7′-difluorofluorescein]	4.02	–	–	–	–	–	–	–
O=C1OC2(c3ccc(O)cc3Oc3cc(O)ccc32)c2c(F)c(F)c(F)c(F)c21 [3,4,5,6-tetrafluorofluorescein]	4.13	–	–	–	–	–	–	–
O=C1OC2(c3ccccc31)c1cc(F)c(O)c([As]3SCCS3)c1Oc1c2cc(F)c(O)c1[As]1SCCS1 [F2FlAsH, 4′,5′-Bis(1,2,3-dithioarsolan-2-yl)-2′,7′-difluorofluorescein]	–	516	4.78	1.58	5.4	3.44	4.1	shift of absorption maximum to the blue compared to FlAsH [2]: 11 nm; emission quantum yield relative to FlAsH complex ([2]; P12 complex): 2 ×; extinction coefficient at 490 nm relative to FlAsH complex ([2]; P12 complex): 2 ×; fluorescence intensity relative to complex with parent FlAsH ([2]; P12 complex, λexc 490 nm, λem 525 nm): 4 fold; λem ([2]; biarsenical-P12 complex): 522 nm; Stokes shift ([2]; complex with P12): 22 nm; Stokes shift, greater than that of the FlAsH complex by ([2]; complex with P12): 7 nm; 10^13 · J (overlap integral) ([4]; acceptor F2FlAsH): 1.37; Ro ([4]; acceptor F2FlAsH): 5.2 nm; 10^14 · J (overlap integral) ([4]; acceptor FlAsH): 6.41; Ro ([4]; acceptor FlAsH): 4.1 nm
O=C1OC2(c3ccc(O)c([As]4SCCS4)c3Oc3c2ccc(O)c3[As]2SCCS2)c2c(F)c(F)c(F)c(F)c21 [F4FlAsH, 4′,5′-Bis(1,2,3-dithioarsolan-2-yl)-3,4,5,6-tetrafluorofluorescein]	–	538	5.18	1.17	4.5	6.45	4.1	displacement of absorption maximum to the red compared to FlAsH [2]: 17 mn; Φd, emission quantum yield of donor [4]: 0.4
O=C1OC2(c3ccccc31)c1ccc(O)c([As]3SCCS3)c1Oc1c2ccc(O)c1[As]1SCCS1 [FlAsH, 4′,5′-Bis(1,2,3-dithioarsolan-2-yl)-fluorescein, reference compound]	–	519.5	4.88	1.48	4.7	5.03	3.9	Φd, emission quantum yield of donor [5]: ~0.4; τ (fluorescence lifetime) ([1]; biarsenical-P12 complex): 4.88 ns
